According to patent US20180168208A1 (priority 2014, published 2018):
Like-named read-outs stand apart in the source and are kept apart here.

Experiments:
cat T1R1/T1R3 receptor = target: T1, cat T1R1/T1R3 receptor (Felis catus, UniProt A0ABI7Z2I4); experiment: cell-based; conditions: for function as activators of T1R1/T1R3 (in words): in the presence of alanine
T1 sequence (A0ABI7Z2I4 171-420): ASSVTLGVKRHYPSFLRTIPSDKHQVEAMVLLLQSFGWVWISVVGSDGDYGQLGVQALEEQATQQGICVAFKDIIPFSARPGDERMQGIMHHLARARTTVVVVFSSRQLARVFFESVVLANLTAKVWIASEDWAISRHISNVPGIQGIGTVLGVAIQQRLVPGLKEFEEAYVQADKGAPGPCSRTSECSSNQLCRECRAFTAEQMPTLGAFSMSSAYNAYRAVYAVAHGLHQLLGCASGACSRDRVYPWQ
T1 sequence (Q49KI5 25-865 E206Q/N523D/F654L partner): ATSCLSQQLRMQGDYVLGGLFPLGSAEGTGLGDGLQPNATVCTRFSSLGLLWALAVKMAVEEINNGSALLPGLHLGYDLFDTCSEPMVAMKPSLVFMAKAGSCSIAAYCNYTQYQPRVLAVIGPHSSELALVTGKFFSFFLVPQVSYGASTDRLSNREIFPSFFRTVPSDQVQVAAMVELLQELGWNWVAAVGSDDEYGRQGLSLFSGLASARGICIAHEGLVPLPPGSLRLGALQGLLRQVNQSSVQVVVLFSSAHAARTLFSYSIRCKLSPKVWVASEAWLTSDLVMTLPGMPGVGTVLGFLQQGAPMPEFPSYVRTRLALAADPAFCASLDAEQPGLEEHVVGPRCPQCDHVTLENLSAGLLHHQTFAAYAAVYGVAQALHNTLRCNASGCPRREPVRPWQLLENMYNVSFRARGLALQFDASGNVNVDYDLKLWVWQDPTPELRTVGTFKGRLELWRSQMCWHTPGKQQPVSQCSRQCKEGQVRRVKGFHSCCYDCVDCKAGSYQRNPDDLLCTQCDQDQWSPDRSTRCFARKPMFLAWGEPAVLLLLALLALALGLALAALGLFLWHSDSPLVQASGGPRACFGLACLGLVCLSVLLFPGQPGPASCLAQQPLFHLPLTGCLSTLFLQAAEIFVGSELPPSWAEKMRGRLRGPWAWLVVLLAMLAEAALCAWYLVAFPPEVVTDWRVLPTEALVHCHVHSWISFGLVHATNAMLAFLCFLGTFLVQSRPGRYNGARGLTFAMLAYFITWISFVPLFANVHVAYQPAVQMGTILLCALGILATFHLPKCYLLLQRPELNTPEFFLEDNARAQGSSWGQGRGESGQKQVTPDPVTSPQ
Excerpt: (§1) HEK293 cells that stably express T1R3 and inducibly express T1R1 were exposed to nucleotide derivatives alone or in combination with one or more amino acids and/or one or more nucleotides to activate the umami receptor. Activation of the T1R1/T1R3 receptor was detected by a change in intracellular calcium levels using a calcium sensitive fluorescent dye and/or a luminescent reporter system. Cells that express T1R3 but not T1R1 were used as a control. A FLIPR® Tetra or a FlexStation® 3 was used for data capture.

T1R1/T1R3 receptor = T1R1/T1R3 receptor (Felis catus, UniProt E3UMS2); experiment: cell-based; format: cell-based
Excerpt: as §1, with “transmembrane compounds” for “nucleotide derivatives”, “dye.” for “dye and/or a luminescent reporter system.”
In each experiment, serial dilutions of up to 10 mM of the transmembrane compound were added to the T1R1/T1R3-expressing cells.

[1] = maximum response in relation to the response with IMP, 20 mM alanine
[2] = maximum response of the receptor, 20 mM alanine
[3] = threshold amount that results in activation of T1R1/T1R3, 20 mM alanine

CNc1ncnc2c1ncn2[C@H]1C[C@H](OP(=O)(O)O)[C@@H](COP(=O)(O)O)O1
Max resp. (ΔF/F) (cat T1R1/T1R3 receptor): 1.8150 ΔF/F
Max. resp. % of IMP (cat T1R1/T1R3 receptor): 146.1 % of IMP
Threshold (cat T1R1/T1R3 receptor): 0.013 mM

O=C(Nc1ncnc2c1ncn2[C@@H]1O[C@H](COP(=O)(O)O)[C@@H](O)[C@H]1O)c1ccccc1
Activity (cat T1R1/T1R3 receptor): active
Max resp. (ΔF/F) (cat T1R1/T1R3 receptor): 1.1 ΔF/F
Threshold (cat T1R1/T1R3 receptor): 0.3 mM
EC50 (cat T1R1/T1R3 receptor; read-out: EC50- with Ala): > 1000 µM

O=c1ccn(C2OC(COP(=O)(O)N3CCOCC3)C(O)C2O)c(=O)[nH]1 (stereo not drawn)
Max. resp. % of IMP (cat T1R1/T1R3 receptor; [1]): 104.8 % of IMP
Max resp. (ΔF/F) (cat T1R1/T1R3 receptor; [2]): 1.0150 ΔF/F
Threshold (cat T1R1/T1R3 receptor; [3]): 2.000 mM

2′-,3′-O-(N′-Methylanthraniloyl) guanosine-5′-O-monophosphate
Max. resp. % of IMP (cat T1R1/T1R3 receptor; [1]): 74.3 % of IMP
Max resp. (ΔF/F) (cat T1R1/T1R3 receptor; [2]): 0.7190 ΔF/F
Threshold (cat T1R1/T1R3 receptor; [3]): 0.0014 mM

2′-,3′-O-(N′-Methylanthraniloyl)guanosine-5′-O-monophosphate
Activity (cat T1R1/T1R3 receptor; +Alanine (20 mM)): active
Max. resp. % of IMP (cat T1R1/T1R3 receptor; [1]): 74.3 % of IMP
Max resp. (ΔF/F) (cat T1R1/T1R3 receptor; [2]): 0.7190 ΔF/F
Threshold (cat T1R1/T1R3 receptor; [3]): 0.0014 mM

2′-, 3′-O—(N′-methylanthraniloyl)guanosine-5′-O-monophosphate
function as activators of T1R1/T1R3 (in words) (cat T1R1/T1R3 receptor): activators of T1R1/T1R3

Nc1ncnc2c1ccn2[C@H]1O[C@@H](COP(=O)(O)O)[C@H](O)[C@@H]1O (stereo in doubt) [7-Deazaadenosine-5′-O-monophosphate]
Activity (cat T1R1/T1R3 receptor): active
Threshold (cat T1R1/T1R3 receptor): 0.188 mM

Nc1nc2c(ncn2[C@H]2O[C@@H](COP(=O)(O)O)[C@H](O)[C@@H]2O)c(=O)[nH]1 (stereo in doubt) [guanosine monophosphate, reference compound]
Activity (cat T1R1/T1R3 receptor): active
EC50 (cat T1R1/T1R3 receptor): 30 µM
Threshold (cat T1R1/T1R3 receptor): 0.008 mM

O=c1ccn([C@H]2O[C@@H](COP(=O)(O)O)[C@H](O)[C@@H]2O)c(=O)[nH]1 (stereo in doubt) [uridine monophosphate]
Activity (cat T1R1/T1R3 receptor): active
EC50 (cat T1R1/T1R3 receptor): > 30000 µM
Threshold (cat T1R1/T1R3 receptor): 3.000 mM

O=P(O)(O)OC[C@H]1O[C@@H](n2cnc3c2ncn2ccnc32)[C@H](O)[C@@H]1O [1, N6-Ethenoadenosine-5′-O-monophosphate]
Threshold (cat T1R1/T1R3 receptor): 0.010 mM

O=P(O)(O)OC[C@H]1O[C@@H](n2cnc3c2ncn2ccnc32)[C@H](O)[C@@H]1O [1,N6-Ethenoadenosine-5′-O-monophosphate]
Activity (cat T1R1/T1R3 receptor; +Alanine (20 mM)): active

Nc1nc(Cl)c2ncn(C3OC(COP(=O)(O)O)C(O)C3O)c2n1 (stereo not drawn) [2-amino-6-chloropurineriboside-5′-O-monophosphate]
Activity (cat T1R1/T1R3 receptor): active
EC50 (cat T1R1/T1R3 receptor): 0.5 µM
Threshold (cat T1R1/T1R3 receptor): 0.00013 mM

CNc1ccccc1C(=O)OC1C[C@H](n2cnc3c(=O)[nH]c(N)nc32)O[C@@H]1COP(=O)(O)O (stereo partly drawn) [2′-Deoxy-3′-O-(N′-methylanthraniloyl) guanosine-5′-O-monophosphate]
Activity (cat T1R1/T1R3 receptor): active
Max resp. (ΔF/F) (cat T1R1/T1R3 receptor): 0.295 ΔF/F
Max. resp. % of IMP (cat T1R1/T1R3 receptor): 23.7 % of IMP
Threshold (cat T1R1/T1R3 receptor): 0.0025 mM
function as activators of T1R1/T1R3 (in words) (cat T1R1/T1R3 receptor): activators of T1R1/T1R3

CNc1ccccc1C(=O)O[C@H]1C[C@H](n2cnc3c(N)ncnc32)O[C@@H]1COP(=O)(O)O [2′-Deoxy-3′-O-(N′-methylanthraniloyl)adenosine-5′-O-monophosphate]
Activity (cat T1R1/T1R3 receptor): active
Max resp. (ΔF/F) (cat T1R1/T1R3 receptor): 0.3975 ΔF/F
Max. resp. % of IMP (cat T1R1/T1R3 receptor): 32.0 % of IMP
Threshold (cat T1R1/T1R3 receptor): 0.0025 mM

CCC(CC)NC(=O)c1ccc2c(c1)OCCO2 [N-(pentan-3-yl)-2,3-dihydrobenzo[b][1,4]dioxine-6-carboxamide]
Thres +Alanine (T1R1/T1R3 receptor; + Alanine (20 nM), Table 17): 0.3 mM
Max resp % of IMP + Alanine (T1R1/T1R3 receptor; + Alanine, Table 17): 25.2 % of IMP
Max resp ΔF/F +Alanine (T1R1/T1R3 receptor; + Alanine, Table 17): 0.3125
EC50 (T1R1/T1R3 receptor; + Alanine, Table 17, read-out: EC50 + Alanine): > 1000 µM
Max resp % of ALa + IMP (T1R1/T1R3 receptor; + IMP (0.2 mM), Table 17): 70.9 % of ALa
Thres + IMP (T1R1/T1R3 receptor; + IMP (0.2 mM), Table 17): 0.075 mM
Max resp ΔF/F +Alanine (T1R1/T1R3 receptor; +Alanine (20 mM), Table 18): 0.3125
Thres +Alanine (T1R1/T1R3 receptor; +Alanine (20 mM), Table 18): 0.3 mM
EC50 (T1R1/T1R3 receptor; +Alanine (20 mM), Table 18, read-out: EC50 +Alanine): > 1000 µM
Max resp % of Ala +IMP (T1R1/T1R3 receptor; +IMP (0.2 mM), Table 18): 70.9 % of Ala
Max resp ΔF/F +IMP (T1R1/T1R3 receptor; +IMP (0.2 mM), Table 18): 0.8725
EC50 (T1R1/T1R3 receptor; EC50 + IMP, + IMP (0.2 mM), Table 17): 300 µM
EC50 (T1R1/T1R3 receptor; EC50 +Alanine + IMP, +Alanine (20 mM) + IMP (0.2 mM), Table 18): 200 µM
EC50 (T1R1/T1R3 receptor; EC50 +IMP, +IMP (0.2 mM), Table 18): 300 µM
EC50 (T1R1/T1R3 receptor; compound alone in buffer, Table 17, read-out: EC50 + buffer (alone)): > 1000 µM
EC50 (T1R1/T1R3 receptor; compound alone in buffer, Table 18, read-out: EC50 +buffer (alone)): > 1000 µM

N[C@@H](Cc1ccccc1)C(=O)O [Phenylalanine, phenylalanine]
EC50 (T1R1/T1R3 receptor; EC50 - with IMP (0.2 mM), with 0.2 mM IMP): 3400 ± 700 µM
